Measurements from patent US20140128402A1, “PHARMACEUTICAL COMBINATION” (IPCA Laboratories Limited, priority 2011, published 2014).

What was measured:
Assay type in all cases: in vivo, Wistar rats
[1] = tested on: STZ induced diabetic rats; assay: Study No 2: blood glucose in STZ induced diabetic rats (HCQ with vildagliptin and saxagliptin); details: for Plasma glucose concentration: oral
Method: In this experiment 96 Wistar rats weighing 150-200 g of either sex were divided randomly into 16 groups consisting of 6 rats each. The study drugs were dissolved in water/suspended in vehicle [0.1% w/v suspension of Tween 80 and carboxymethylcellulose (CMC) in water] and administered orally for 28 days. Group 1 (normal vehicle control) consisted of normal rats that neither received Streptozotocin (STZ) nor any test drug; Group 2 served as Streptozotocin induced diabetic control [Diabetes was induced in rats by single administration of Streptozotocin (55 mg/kg/i.p.) dissolved in 0.1 M-citrate buffer, pH 4.5]. Forty-eight hours later, blood samples were collected and glucose levels were determined to confirm the development of diabetes. Only animals showing hyperglycaemia (blood glucose levels>250 mg/dl) were considered as diabetic and received vehicle orally; Group 3 was diabetic rats treated with hydroxychloroquine (HCQ) (22.5 mg/kg); Group 4 was diabetic rats treated with HCQ (45 mg/kg), Group 5 was diabetic rats treated with vildagliptin (VG) 6 mg/kg; Group 6 was diabetic rats treated with VG 12 mg/kg; Group 7 was diabetic rats treated with HCQ 22.5 mg/kg+VG 12 mg/kg and Group 8 was diabetic rats treated with combination of HCQ 45 mg/kg and VG 6 mg/kg; Group 9 was diabetic rats treated with saxagliptin (SG) 0.3 mg/kg; Group 10 was diabetic rats treated with Saxagliptin (SG) 0.6 mg/kg; Group 11 was diabetic rats treated with combination of HCQ 45 mg/kg+SG 0.3 mg/kg; Group 12 was diabetic rats treated with combination of HCQ 22.5 mg/kg+SG 0.6 mg/kg; Group 13 was diabetic rats treated with combination of HCQ 22.5 mg/kg and VG 6 mg/kg; Group 14 was diabetic rats treated with combination of HCQ 45 mg/kg and VG 12 mg/kg; Group 15 was diabetic rats treated with combination of HCQ 22.5 mg/kg+SG 0.3 mg/kg; Group 16 was diabetic rats treated with combination of HCQ 45 mg/kg+SG 0.6 mg/kg.
Blood glucose level was measured in normal and experimental rats at 0, 7th, 14th, 21st and 28th day of administration.

[2] = tested on: STZ-induced diabetic rats; assay: Study No 2: biochemical parameters in STZ-induced diabetic rats; details: for Creatinine / HbA1c / Total Protein / Urea: after 28 days, oral
[3] = tested on: STZ-induced diabetic rats; assay: Study No 2: body weight, water intake and food intake in STZ-induced diabetic rats; details: for AVERAGE FOOD INTAKE / AVERAGE WATER INTAKE / Body Weight: oral
[4] = Day 0, HCQ 22.5, VG 6, SG 0.3 mg/kg alone, HCQ+VG 22.5+6, HCQ+SG 22.5+0.3 mg/kg
[5] = Day 0, HCQ 45, VG 12, SG 0.6 mg/kg alone, HCQ+VG 45+12, HCQ+SG 45+0.6 mg/kg
[6] = Day 7, HCQ 22.5, VG 6, SG 0.3 mg/kg alone, HCQ+VG 22.5+6, HCQ+SG 22.5+0.3 mg/kg
[7] = Day 7, HCQ 45, VG 12, SG 0.6 mg/kg alone, HCQ+VG 45+12, HCQ+SG 45+0.6 mg/kg
[8] = Day 14, HCQ 22.5, VG 6, SG 0.3 mg/kg alone, HCQ+VG 22.5+6, HCQ+SG 22.5+0.3 mg/kg
[9] = Day 14, HCQ 45, VG 12, SG 0.6 mg/kg alone, HCQ+VG 45+12, HCQ+SG 45+0.6 mg/kg
[10] = Day 21, HCQ 22.5, VG 6, SG 0.3 mg/kg alone, HCQ+VG 22.5+6, HCQ+SG 22.5+0.3 mg/kg
[11] = Day 21, HCQ 45, VG 12, SG 0.6 mg/kg alone, HCQ+VG 45+12, HCQ+SG 45+0.6 mg/kg
[12] = Day 28, HCQ 22.5, VG 6, SG 0.3 mg/kg alone, HCQ+VG 22.5+6, HCQ+SG 22.5+0.3 mg/kg
[13] = Day 28, HCQ 45, VG 12, SG 0.6 mg/kg alone, HCQ+VG 45+12, HCQ+SG 45+0.6 mg/kg
[14] = HCQ 22.5, VG 6, SG 0.3 mg/kg alone, HCQ+VG 22.5+6, HCQ+SG 22.5+0.3 mg/kg/day
[15] = HCQ 45, VG 12, SG 0.6 mg/kg alone, HCQ+VG 45+12, HCQ+SG 45+0.6 mg/kg/day
[16] = Day 0, HCQ 22.5, VG 6, SG 0.3 mg/kg alone, HCQ+VG 22.5+6, HCQ+SG 22.5+0.3 mg/kg/day
[17] = Day 0, HCQ 45, VG 12, SG 0.6 mg/kg alone, HCQ+VG 45+12, HCQ+SG 45+0.6 mg/kg/day
[18] = Day 7, HCQ 22.5, VG 6, SG 0.3 mg/kg alone, HCQ+VG 22.5+6, HCQ+SG 22.5+0.3 mg/kg/day
[19] = Day 7, HCQ 45, VG 12, SG 0.6 mg/kg alone, HCQ+VG 45+12, HCQ+SG 45+0.6 mg/kg/day
[20] = Day 14, HCQ 22.5, VG 6, SG 0.3 mg/kg alone, HCQ+VG 22.5+6, HCQ+SG 22.5+0.3 mg/kg/day
[21] = Day 14, HCQ 45, VG 12, SG 0.6 mg/kg alone, HCQ+VG 45+12, HCQ+SG 45+0.6 mg/kg/day
[22] = Day 21, HCQ 22.5, VG 6, SG 0.3 mg/kg alone, HCQ+VG 22.5+6, HCQ+SG 22.5+0.3 mg/kg/day
[23] = Day 21, HCQ 45, VG 12, SG 0.6 mg/kg alone, HCQ+VG 45+12, HCQ+SG 45+0.6 mg/kg/day
[24] = Day 28, HCQ 22.5, VG 6, SG 0.3 mg/kg alone, HCQ+VG 22.5+6, HCQ+SG 22.5+0.3 mg/kg/day
[25] = Day 28, HCQ 45, VG 12, SG 0.6 mg/kg alone, HCQ+VG 45+12, HCQ+SG 45+0.6 mg/kg/day
[26] = monotherapies, all the tested dose levels except HCQ (22.5 mg/kg), p≦0.05

## N#C[C@@H]1C[C@@H]2C[C@@H]2N1C(=O)[C@@H](N)C12CC3CC(CC(O)(C3)C1)C2 [SG, Saxagliptin]
[1]; [4]
  Plasma glucose concentration: 288.83 ± 26.19 mg/dL
[1]; [5]
  Plasma glucose concentration: 285.5 ± 33.58 mg/dL
[1]; [6]
  Plasma glucose concentration: 246.5 ± 4.89 mg/dL
[1]; [7]
  Plasma glucose concentration: 146.5 ± 4.89 mg/dL
[1]; [8]
  Plasma glucose concentration: 226.33 ± 12.36 mg/dL
[1]; [9]
  Plasma glucose concentration: 138.5 ± 7.23 mg/dL
[1]; [10]
  Plasma glucose concentration: 194 ± 38.79 mg/dL
[1]; [11]
  Plasma glucose concentration: 137.5 ± 9.44 mg/dL
[1]; [12]
  Plasma glucose concentration: 194.17 ± 17.17 mg/dL
[1]; [13]
  Plasma glucose concentration: 161 ± 9.67 mg/dL
[2]; [14]
  Creatinine: 1.89 ± 0.23 mg/dL
  HbA1c: 10.79 ± 1.05 %
  Total Protein: 6.55 ± 0.37 gm/dl
  Urea: 22.74 ± 2.71 mg/dL
[2]; [15]
  Creatinine: 1.81 ± 0.27 mg/dL
  HbA1c: 9.65 ± 1.51 %
  Total Protein: 6.62 ± 0.49 gm/dl
  Urea: 21.26 ± 2.41 mg/dL
[3]; [16]
  AVERAGE FOOD INTAKE: 12.13 g
  AVERAGE WATER INTAKE: 23.71 mL
  Body Weight: 208.33 ± 6.15 g
[3]; [17]
  AVERAGE FOOD INTAKE: 12.45 g
  AVERAGE WATER INTAKE: 24.86 mL
  Body Weight: 211 ± 7.38 g
[3]; [18]
  AVERAGE FOOD INTAKE: 14.00 g
  AVERAGE WATER INTAKE: 21.12 mL
  Body Weight: 199.5 ± 7.69 g
[3]; [19]
  AVERAGE FOOD INTAKE: 14.45 g
  AVERAGE WATER INTAKE: 21.11 mL
  Body Weight: 203.17 ± 7.47 g
[3]; [20]
  AVERAGE FOOD INTAKE: 12.54 g
  AVERAGE WATER INTAKE: 21.67 mL
  Body Weight: 197.83 ± 8.06 g
[3]; [21]
  AVERAGE FOOD INTAKE: 12.00 g
  AVERAGE WATER INTAKE: 21.89 mL
  Body Weight: 201.17 ± 8.52 g
[3]; [22]
  AVERAGE FOOD INTAKE: 13.05 g
  AVERAGE WATER INTAKE: 25.17 mL
  Body Weight: 196.33 ± 8.36 g
[3]; [23]
  AVERAGE FOOD INTAKE: 13.26 g
  AVERAGE WATER INTAKE: 26.00 mL
  Body Weight: 199.83 ± 8.35 g
[3]; [24]
  AVERAGE FOOD INTAKE: 14.25 g
  AVERAGE WATER INTAKE: 25.19 mL
  Body Weight: 193.83 ± 8.13 g
[3]; [25]
  AVERAGE FOOD INTAKE: 14.00 g
  AVERAGE WATER INTAKE: 25.12 mL
  Body Weight: 198 ± 8.74 g

## N#C[C@@H]1CCCN1C(=O)CNC12CC3CC(CC(O)(C3)C1)C2 [VG, Vildagliptin]
[1]; [4]
  Plasma glucose concentration: 296 ± 21.59 mg/dL
[1]; [5]
  Plasma glucose concentration: 288 ± 11.58 mg/dL
[1]; [6]
  Plasma glucose concentration: 242.17 ± 40.58 mg/dL
[1]; [7]
  Plasma glucose concentration: 227 ± 40.57 mg/dL
[1]; [8]
  Plasma glucose concentration: 199.83 ± 35.33 mg/dL
[1]; [9]
  Plasma glucose concentration: 188.83 ± 34.23 mg/dL
[1]; [10]
  Plasma glucose concentration: 191.33 ± 22.46 mg/dL
[1]; [11]
  Plasma glucose concentration: 173.5 ± 15.6 mg/dL
[1]; [12]
  Plasma glucose concentration: 182.67 ± 33.01 mg/dL
[1]; [13]
  Plasma glucose concentration: 167.5 ± 9.12 mg/dL
[1]; alone at therapeutic equivalent doses, day 28
  blood glucose levels as compared to diabetic control group: significant improvement
[2]; [14]
  Creatinine: 1.78 ± 0.14 mg/dL
  HbA1c: 10.76 ± 0.97 %
  Total Protein: 7.08 ± 0.55 gm/dl
  Urea: 21.48 ± 4.35 mg/dL
[2]; [15]
  Creatinine: 1.69 ± 0.21 mg/dL
  HbA1c: 9.97 ± 0.95 %
  Total Protein: 7.15 ± 0.19 gm/dl
  Urea: 20.23 ± 1.89 mg/dL
[2]; all tested doses, 28 days, p≦0.05
  HbA1c levels as compared to diabetic control: significantly (p≦0.05) reduced
[2]; monotherapies at all doses, 28 days, p≦0.05
  total protein level as compared to the diabetic control group: significant rise
[2]; [26]
  creatinine levels as compared to diabetic control group: significant reduction
  urea levels as compared to diabetic control group: significant reduction
[3]; [16]
  AVERAGE FOOD INTAKE: 11.40 g
  AVERAGE WATER INTAKE: 25.00 mL
  Body Weight: 195 ± 7.18 g
[3]; [17]
  AVERAGE FOOD INTAKE: 11.90 g
  AVERAGE WATER INTAKE: 24.35 mL
  Body Weight: 197.5 ± 6.35 g
[3]; [18]
  AVERAGE FOOD INTAKE: 13.00 g
  AVERAGE WATER INTAKE: 22.12 mL
  Body Weight: 179.17 ± 11.27 g
[3]; [19]
  AVERAGE FOOD INTAKE: 13.50 g
  AVERAGE WATER INTAKE: 22.19 mL
  Body Weight: 189 ± 3.52 g
[3]; [20]
  AVERAGE FOOD INTAKE: 12.10 g
  AVERAGE WATER INTAKE: 21.32 mL
  Body Weight: 182.83 ± 12.66 g
[3]; [21]
  AVERAGE FOOD INTAKE: 12.00 g
  AVERAGE WATER INTAKE: 22.11 mL
  Body Weight: 187.67 ± 6.38 g
[3]; [22]
  AVERAGE FOOD INTAKE: 12.90 g
  AVERAGE WATER INTAKE: 25.12 mL
  Body Weight: 185.67 ± 11.86 g
[3]; [23]
  AVERAGE FOOD INTAKE: 13.05 g
  AVERAGE WATER INTAKE: 26.13 mL
  Body Weight: 186.5 ± 8.83 g
[3]; [24]
  AVERAGE FOOD INTAKE: 14.33 g
  AVERAGE WATER INTAKE: 26.31 mL
  Body Weight: 189.5 ± 11.81 g
[3]; [25]
  AVERAGE FOOD INTAKE: 14.30 g
  AVERAGE WATER INTAKE: 25.71 mL
  Body Weight: 185.67 ± 11.69 g
[3]; monotherapies, p≦0.05
  body weight as compared to diabetic control group: reduction was significantly less
